Data taken from patent US20220031800A1, “PEPTIDES FOR TREATING NON-EXUDATIVE MACULAR DEGENERATION AND OTHER DISORDERS OF THE EYE” (Allegro Pharmaceuticals, LLC, priority 2019, published 2022).
Square brackets hold non-standard residues; d marks the D form. Peptide text beside a SMILES is read from it. Cya = N[C@@H](CS(=O)(=O)O)C(=O)O

System: study eye of subjects with intermediate non-exudative AMD
Assay: SD-OCT Analysis 2 (thickness, volume, map coverage of retinal layers)
Type: in vivo, human
Experimental: Numerous study assessments were conducted at various time points throughout the study. Included among these study assessments were; refractive eye examinations, determinations of BCVA AND low-luminance BCVA, Lanthony D-15 color vision test, measurement of intraocular pressure (IOP), Indirect ophthalmoscopy/dilated fundus examinations and spectral-domain optical coherence tomography (SD-OCT). Also, blood and saliva samples were obtained from each subject for genetic analysis. The above-listed study assessments were performed at the time points indicated in Table 1, below: The OCT scans were analyzed by two (2) unrelated experts. In Analysis #2, the OCT images of study eyes were analyzed to determine mean thickness and mean volume of numerous retinal subfields and layer segments at baseline and at Week 12 for sham eyes and at baseline and at Week 32 for risuteganib eyes, to document any significant differences between groups of eyes based on baseline measurements or changes from baseline in those measurements. In addition to the quantitative analysis of OCT images, OCT Analysis #2 included qualitative assessment of the OCT images to identify GA, pseudodrusen, and disruption of the ELM and EZ layers. FIGS. 9A, 9B and 9C illustrate the level of varying pathology within the ELM based on quantitative mapping that were also assessed, with FIG. 9A (left) showing no ELM disruption, FIG. 9B (center) showing segmental disruption, and FIG. 9C showing diffuse disruption.

[1] = baseline to Week 32, risuteganib arm
[2] = baseline to Week 32, risuteganib arm, paired-eye analysis
[3] = baseline to Week 32, risuteganib nonresponder eyes
[4] = baseline to Week 32, risuteganib responder eyes
[5] = baseline to Week 32, risuteganib super-responder eyes
[6] = change from baseline at Week 32, Risuteganib Nonresponder eyes
[7] = change from baseline at Week 32, Risuteganib Responder eyes

For `C[C@@H](O)[C@H](NC(=O)[C@H](CS(=O)(=O)O)NC(=O)CNC(=O)[C@H](CCCNC(=N)N)NC(=O)CN)C(=O)N1CCC[C@H]1C(=O)O` [risuteganib, Glycyl-L-arginylglycyl-3-sulfo-L-alanyl-L-threonyl-L-proline] (H-GRG[Cya]TP-OH), the “Change in ELM-RPE mid subfield volume” value [1] was −0.002 mm^3, the “Change in ONL-RPE central subfield volume” value [1] was −0.005 mm^3 and the “Change in ONL-RPE mid subfield volume” value [1] was −0.020 mm^3. For the same compound, the “Change in mean ONL-RPE mid subfield thickness” value [1] was −6.441 μm, the “Change in mean total retinal mid subfield thickness” value [1] was −2.548 μm and the “Change in total retinal mid subfield volume” value [1] was −0.008 mm^3. For the same compound, the “Difference in map coverage, 0 μm RPE-BM” value [1] was 1.282%, the “Difference in map coverage, 50 μm RPE-BM” value [1] was −2.644% and the “Difference in map coverage, 150 μm RPE-BM” value (from here on “Difference … 150 μm RPE-BM”) [1] was 2.739%. For the same compound, the “Change in mean ELM-RPE central subfield thickness” value [2] was −2.912 μm, the “Change in mean ONL-RPE central subfield thickness” value [2] was −7.216 μm and the “Change in ONL-RPE mid subfield volume” value [3] was −0.020 mm^3. The “Change in RPE-BM volume” value [3] was 0.037 mm^3, the “Change in mean ONL-RPE mid subfield thickness” value [3] was −6.320 μm and the “Change in mean total retinal central subfield thickness” value [3] was −5.981 μm. For the same compound, the “Change in mean total retinal mid subfield thickness” value [3] was −4.046 μm, the “Change in total retinal central subfield volume” value [3] was −0.004 mm^3 and the “Change in total retinal mid subfield volume” value [3] was −0.012 mm^3. The “Change in total retinal volume” value [3] was 0.091 mm^3, the “Difference in map coverage, <10 μm EZ” value [3] was 1.332% and the “Difference in map coverage, <20 μm EZ” value [3] was 1.288%. For the same compound, the “Change in ELM-RPE central subfield volume” value [4] was −0.002 mm^3, the “Change in RPE-BM volume” value [4] was −0.049 mm^3 and the “Difference in map coverage, 50 μm RPE-BM” value [4] was −3.494%. The “Difference … 150 μm RPE-BM” value [4] was 3.335%, the “Change in mean ELM-RPE central subfield thickness” value (baseline to Week 32, risuteganib responder eyes, paired-eye analysis) was −3.102 μm and the “Change in ELM-RPE central subfield volume” value [5] was −0.003 mm^3. The “Difference … 150 μm RPE-BM” value [5] was 2.943%, the “Change in mean ELM-RPE central subfield thickness” value (baseline to Week 32, risuteganib super-responder eyes, paired-eye analysis) was −3.461 μm and the “Change in mean thickness, ELM-EZ central subfield” value [6] was −1.332 μm. For the same compound, the “Change in mean thickness, ELM-EZ mid subfield” value [6] was 0.754 μm, the “Change in mean thickness, ELM-RPE central subfield” value [6] was −2.722 μm and the “Change in mean thickness, ELM-RPE foveal center” value [6] was −12.189 μm. The “Change in mean thickness, ELM-RPE mid subfield” value [6] was −1.044 μm, the “Change in mean thickness, EZ-RPE central subfield” value [6] was −1.390 μm and the “Change in mean thickness, EZ-RPE foveal center” value [6] was −1.789 μm. The “Change in mean thickness, EZ-RPE mid subfield” value [6] was −1.798 μm, the “Change in mean thickness, Inner retina central subfield” value [6] was 1.896 μm and the “Change in mean thickness, Inner retina mid subfield” value [6] was 2.274 μm. For the same compound, the “Change in mean thickness, ONL-EZ central subfield” value [6] was −6.486 μm, the “Change in mean thickness, ONL-EZ mid subfield” value [6] was −4.522 μm and the “Change in mean thickness, ONL-RPE central subfield” value [6] was −7.877 μm. For the same compound, the “Change in mean thickness, ONL-RPE foveal center” value [6] was −7.626 μm, the “Change in mean thickness, ONL-RPE mid subfield” value [6] was −6.320 μm and the “Change in mean thickness, RPE-BM central subfield” value [6] was −0.118 μm. The “Change in mean thickness, RPE-BM foveal center” value [6] was −3.740 μm, the “Change in mean thickness, RPE-BM mid subfield” value [6] was 1.114 μm and the “Change in mean thickness, Total retinal central subfield” value [6] was −5.981 μm. For the same compound, the “Change in mean thickness, Total retinal foveal center” value [6] was −9.112 μm, the “Change in mean thickness, Total retinal mid subfield” value [6] was −4.046 μm and the “Change in volume, ELM-EZ central subfield” value [6] was −0.001 mm^3. For the same compound, the “Change in volume, ELM-EZ mid subfield” value [6] was 0.002 mm^3, the “Change in volume, ELM-RPE” value [6] was 0.009 mm^3 and the “Change in volume, ELM-RPE central subfield” value [6] was −0.002 mm^3. For the same compound, the “Change in volume, ELM-RPE mid subfield” value [6] was −0.003 mm^3, the “Change in volume, EZ-RPE” value [6] was 0.005 mm^3 and the “Change in volume, EZ-RPE central subfield” value [6] was −0.001 mm^3. The “Change in volume, EZ-RPE mid subfield” value [6] was −0.006 mm^3, the “Change in volume, ONL-EZ central subfield” value [6] was −0.005 mm^3 and the “Change in volume, ONL-EZ mid subfield” value [6] was −0.014 mm^3. For the same compound, the “Change in volume, ONL-RPE” value [6] was −0.026 mm^3, the “Change in volume, ONL-RPE central subfield” value [6] was −0.006 mm^3 and the “Change in volume, ONL-RPE mid subfield” value [6] was −0.020 mm^3. The “Change in volume, RPE-BM” value [6] was 0.037 mm^3, the “Change in volume, RPE-BM central subfield” value [6] was 0.000 mm^3 and the “Change in volume, RPE-BM mid subfield” value [6] was 0.004 mm^3. The “Change in volume, Total retinal” value [6] was 0.091 mm^3, the “Change in volume, Total retinal central subfield” value [6] was −0.004 mm^3 and the “Change in volume, Total retinal mid subfield” value [6] was −0.012 mm^3. The “Map coverage, 0 μm EZ” value [6] was 1.469%, the “Map coverage, 0 μm RPE-BM” value [6] was 1.465% and the “Map coverage, 10 μm EZ” value [6] was 1.332%. For the same compound, the “Map coverage, 20 μm EZ” value [6] was 1.288%, the “Map coverage, 50 μm RPE-BM” value [6] was −1.794% and the “Map coverage, 150 μm RPE-BM” value [6] was 2.143%. For the same compound, the “Map coverage, 250 μm RPE-BM” value [6] was 0.000%, the “Change in mean thickness, ELM-EZ central subfield” value [7] was −2.322 μm and the “Change in mean thickness, ELM-EZ mid subfield” value [7] was −0.967 μm. The “Change in mean thickness, ELM-RPE central subfield” value [7] was −3.102 μm, the “Change in mean thickness, ELM-RPE foveal center” value [7] was 0.000 μm and the “Change in mean thickness, ELM-RPE mid subfield” value [7] was −2.141 μm. The “Change in mean thickness, EZ-RPE central subfield” value [7] was −0.779 μm, the “Change in mean thickness, EZ-RPE foveal center” value [7] was 0.975 μm and the “Change in mean thickness, EZ-RPE mid subfield” value [7] was −1.174 μm. For the same compound, the “Change in mean thickness, Inner retina central subfield” value [7] was 5.864 μm, the “Change in mean thickness, Inner retina mid subfield” value [7] was 5.512 μm and the “Change in mean thickness, ONL-EZ central subfield” value [7] was −5.775 μm. For the same compound, the “Change in mean thickness, ONL-EZ mid subfield” value [7] was −5.386 μm and the “Change in mean thickness, ONL-RPE central subfield” value [7] was −6.555 μm.
